We go through 14 molecules from patent publication US7348427B2, “Antipathogenic benzamide compounds” (Genesoft Pharmaceuticals, Inc., priority 2001, dated 2008).

The test system of experiment [1] is Bacillus cereus (ATCC 11778). Briefly: MIC, NCCLS broth microdilution assay. Type of experiment: cell-based. The following applies: A = B. cereus ATCC 11778. An outline of the steps:
(§1)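 MIC determined by broth microdilution in microtiter plates per NCCLS documents M7-A4, M11-A4 (1997) and M27-T (1995). Antifungal testing against the yeast followed the method recommended in the Manual of Clinical Microbiology (1995).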

The test system of experiment [2] is Staphylococcus aureus (ATCC 13709, a methicillin sensitive strain (MSSA)). Briefly: MIC, NCCLS broth microdilution assay. Format: cell-based. The following applies: E = S. aureus ATCC 13709. In short, it runs like this: as §1
In experiment [3] the test system is Staphylococcus aureus (ATCC 27660, a methicillin resistant strain (MRSA)). Put plainly: MIC, NCCLS broth microdilution assay. Format: cell-based. The following applies: F = S. aureus ATCC 27660. An outline of the steps:
as §1

The subject of experiment [4] is Candida albicans (ATCC 38247). Briefly: Antifungal MIC assay. Format: cell-based. The following applies: B = C. albicans ATCC 38247. In short, it runs like this: as §1
A further experiment has as its system E. faecalis ATCC 29212. Put plainly: MIC, NCCLS broth microdilution assay. Format: cell-based, Enterococcus faecalis. The following applies: C = E. faecalis ATCC 29212. In short, it runs like this:
(§2)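 Broth microdilution per NCCLS M7-A4 (1997) guidelines; MIC recorded as minimal inhibitory concentration.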

In a further experiment the test system is S. pneumoniae ATCC 49619. Put plainly: MIC, NCCLS broth microdilution assay. Format: cell-based, Streptococcus pneumoniae. The following applies: H = S. pneumoniae ATCC 49619. In short, it runs like this: as §2
Where [5] appears, read: Staphylococcus aureus, read-out: Minimum Inhibitory Concentration (MIC).

In brackets after ≈: the same amount, converted by molar mass.

Consider `Cn1cc(NC(=O)c2cc(NC(=O)c3ccc(Cl)c(Cl)c3)cn2C)cc1C(=O)NCCN1CCOCC1` [Compound B-54], for which the “Minimum Inhibitory Concentration (MIC)” value is “++ (++ = 4 < MIC < 12)” in experiment [1]; “+++ (+++ = MIC ≦ 4)” in experiment [2]; “++ (++ = 4 < MIC < 12)” in experiment [3]; more than 32 µg/mL in experiment [4]; “++ (++ = 4 < MIC < 12)” in the experiment with E. faecalis ATCC 29212; “+++ (+++ = MIC ≦ 4)” with S. pneumoniae ATCC 49619.

As to `Cn1cc(NC(=O)c2cc(NC(=O)c3cc(NC(=O)c4ccc(Cl)cc4NCCCNC4CCCCC4)cn3C)cn2C)cc1C(N)=O` [Compound B-63], the “Minimum Inhibitory Concentration (MIC)” value is “+ (+ = 12 ≦ MIC ≦ 32)” in experiment [1]; “+++ (+++ = MIC ≦ 4)” in experiment [2]; “+++ (+++ = MIC ≦ 4)” in experiment [3]; more than 32 µg/mL in experiment [4]; more than 32 µg/mL in the experiment on E. faecalis ATCC 29212; “+++ (+++ = MIC ≦ 4)” in the experiment with S. pneumoniae ATCC 49619.

Consider `Cn1cc(NC(=O)c2cc(NC(=O)c3cc(NC(=O)c4ccc(Cl)cc4NCCN4CCCCC4)cn3C)cn2C)cc1C(N)=O` [Compound B-65], for which the “Minimum Inhibitory Concentration (MIC)” value was “++ (++ = 4 < MIC < 12)” in experiment [1]; “+ (+ = 12 ≦ MIC ≦ 32)” in experiment [2]; “++ (++ = 4 < MIC < 12)” in experiment [3]; more than 32 µg/mL in experiment [4]; “+ (+ = 12 ≦ MIC ≦ 32)” with E. faecalis ATCC 29212; “++ (++ = 4 < MIC < 12)” with S. pneumoniae ATCC 49619.

`Cn1cc(NC(=O)c2cc(NC(=O)c3ccc(C#N)cc3)cn2C)cc1C(=O)NCCN1CCOCC1` [Compound B-69]: the “Minimum Inhibitory Concentration (MIC)” value in experiment [1] is “+ (+ = 12 ≦ MIC ≦ 32)”; in experiment [2], “+ (+ = 12 ≦ MIC ≦ 32)”; in experiment [3], more than 32 µg/mL; in experiment [4], more than 32 µg/mL; with E. faecalis ATCC 29212 it was “+ (+ = 12 ≦ MIC ≦ 32)”; with S. pneumoniae ATCC 49619, “+++ (+++ = MIC ≦ 4)”.

Consider `Cn1cc(NC(=O)c2cc(NC(=O)c3cc(NC(=O)c4ccc(F)cc4F)cn3C)cn2C)cc1C(=O)NCCc1ccccn1` [Compound B-82], for which the “Minimum Inhibitory Concentration (MIC)” value in experiment [1] is “+++ (+++ = MIC ≦ 4)”; in experiment [2], “+++ (+++ = MIC ≦ 4)”; in experiment [3], “+++ (+++ = MIC ≦ 4)”; in experiment [4], more than 32 µg/mL; with E. faecalis ATCC 29212, “+++ (+++ = MIC ≦ 4)”; in the experiment with S. pneumoniae ATCC 49619, “+++ (+++ = MIC ≦ 4)”.

With `Cn1cc(NC(=O)c2cc(NC(=O)c3cc(NC(=O)c4ccc(Br)cc4F)cn3C)cn2C)cc1C(=O)NCCN1CCOCC1` [Compound B-83], the “Minimum Inhibitory Concentration (MIC)” value is “+++ (+++ = MIC ≦ 4)” in experiment [1]; “+++ (+++ = MIC ≦ 4)” in experiment [2]; “+++ (+++ = MIC ≦ 4)” in experiment [3]; more than 32 µg/mL in experiment [4]; “+++ (+++ = MIC ≦ 4)” in the experiment on E. faecalis ATCC 29212; “+++ (+++ = MIC ≦ 4)” in the experiment on S. pneumoniae ATCC 49619.

Take `Cn1cc(NC(=O)c2cc(NC(=O)c3cc(NC(=O)c4ccc(OC(F)F)cc4)cn3C)cn2C)cc1C(=O)NCCN1CCCC1` [Compound B-84]: the “Minimum Inhibitory Concentration (MIC)” value is recorded as “+++ (+++ = MIC ≦ 4)” in experiment [1]; “+++ (+++ = MIC ≦ 4)” in experiment [2]; “+++ (+++ = MIC ≦ 4)” in experiment [3]; “+ (+ = 12 ≦ MIC ≦ 32)” in experiment [4]; “+++ (+++ = MIC ≦ 4)” with E. faecalis ATCC 29212; “+++ (+++ = MIC ≦ 4)” in the experiment on S. pneumoniae ATCC 49619.

On to `Cn1cc(NC(=O)c2cc(NC(=O)c3cc(NC(=O)c4ccc(OC(F)F)cc4)cn3C)cn2C)cc1C(=O)NCCN1CCCCC1` [Compound B-85], for which the “Minimum Inhibitory Concentration (MIC)” value in experiment [1] is on record as “+++ (+++ = MIC ≦ 4)”; in experiment [2] it was “+++ (+++ = MIC ≦ 4)”; in experiment [3], “+++ (+++ = MIC ≦ 4)”; in experiment [4] it was “+ (+ = 12 ≦ MIC ≦ 32)”; with E. faecalis ATCC 29212, “+++ (+++ = MIC ≦ 4)”; in the experiment with S. pneumoniae ATCC 49619, “+++ (+++ = MIC ≦ 4)”.

As for `Cn1cc(NC(=O)c2cc(NC(=O)c3cc(NC(=O)c4ccc(OC(F)F)cc4)cn3C)cn2C)cc1C(=O)NCCN1CCSCC1` [Compound B-86], the “Minimum Inhibitory Concentration (MIC)” value in experiment [1] was “+++ (+++ = MIC ≦ 4)”; in experiment [2], “+++ (+++ = MIC ≦ 4)”; in experiment [3], “+++ (+++ = MIC ≦ 4)”; in experiment [4] it was more than 32 µg/mL; with E. faecalis ATCC 29212 it was “+++ (+++ = MIC ≦ 4)”; in the experiment with S. pneumoniae ATCC 49619, “+++ (+++ = MIC ≦ 4)”.

For `Cn1cc(NC(=O)c2ccc(F)cc2F)cc1C(=O)Nc1cc(C(=O)Nc2c[nH]c(C(=O)NCCN3CCOCC3)c2)n(C)c1` [Compound C-1], the MIC in experiment [1] (Bacillus cereus, ATCC11778, read-out: Minimum Inhibitory Concentration (MIC)) is 12 to 32 µg/mL (≈ 19.3 to 51.4 µM); in experiment [2] (setting [5]), 4 to 12 µg/mL (≈ 6.42 to 19.3 µM); in experiment [3] (setting [5]), 12 to 32 µg/mL (≈ 19.3 to 51.4 µM); in experiment [4] (Candida albicans, ATCC38247, read-out: Minimum Inhibitory Concentration (MIC)), more than 32 µg/mL; with E. faecalis ATCC 29212 (Enterococcus faecalis, ATCC29212, read-out: Minimum Inhibitory Concentration (MIC)) it was 4 to 12 µg/mL (≈ 6.42 to 19.3 µM); with S. pneumoniae ATCC 49619 (Streptococcus pneumoniae, ATCC49619, read-out: Minimum Inhibitory Concentration (MIC)), not above 4 µg/mL.

For the molecule `Cn1cc(NC(=O)c2cc(NC(=O)c3cc(NC(=O)c4ccc(F)cc4F)cn3C)c[nH]2)cc1C(=O)NCCN1CCOCC1` [Compound C-2], the “Minimum Inhibitory Concentration (MIC)” value in experiment [1] is “++ (++ = 4 < MIC < 12)”; in experiment [2], “++ (++ = 4 < MIC < 12)”; in experiment [3] it was “++ (++ = 4 < MIC < 12)”; in experiment [4] it was more than 32 µg/mL; in the experiment with E. faecalis ATCC 29212, “++ (++ = 4 < MIC < 12)”; in the experiment on S. pneumoniae ATCC 49619 it was “+++ (+++ = MIC ≦ 4)”.

For the molecule `Cn1cc(NC(=O)c2cc(NC(=O)c3cc(NC(=O)c4ccc(F)cc4F)c[nH]3)c[nH]2)cc1C(=O)NCCN1CCOCC1` [Compound C-3], the “Minimum Inhibitory Concentration (MIC)” value was “+ (+ = 12 ≦ MIC ≦ 32)” in experiment [1]; “+ (+ = 12 ≦ MIC ≦ 32)” in experiment [2]; “+ (+ = 12 ≦ MIC ≦ 32)” in experiment [3]; more than 32 µg/mL in experiment [4]; “++ (++ = 4 < MIC < 12)” with E. faecalis ATCC 29212; “+++ (+++ = MIC ≦ 4)” in the experiment with S. pneumoniae ATCC 49619.

With `Cn1cc(NC(=O)c2cc(NC(=O)c3cc(NC(=O)c4ccc(F)cc4F)cn3C)cn2CCCO)cc1C(=O)NCCN1CCOCC1` [Compound C-4], the “Minimum Inhibitory Concentration (MIC)” value in experiment [1] was “+ (+ = 12 ≦ MIC ≦ 32)”; in experiment [2], “+ (+ = 12 ≦ MIC ≦ 32)”; in experiment [3] it was “+ (+ = 12 ≦ MIC ≦ 32)”; in experiment [4], more than 32 µg/mL; with E. faecalis ATCC 29212 it was “+ (+ = 12 ≦ MIC ≦ 32)”; in the experiment on S. pneumoniae ATCC 49619, “+++ (+++ = MIC ≦ 4)”.

For the molecule `Cn1cc(NC(=O)c2cc(NC(=O)c3cc(NC(=O)c4ccc(F)cc4F)c[nH]3)cn2CCCO)cc1C(=O)NCCN1CCOCC1` [Compound C-5], the “Minimum Inhibitory Concentration (MIC)” value was “+ (+ = 12 ≦ MIC ≦ 32)” in experiment [1]; “+ (+ = 12 ≦ MIC ≦ 32)” in experiment [2]; “+ (+ = 12 ≦ MIC ≦ 32)” in experiment [3]; more than 32 µg/mL in experiment [4]; “+ (+ = 12 ≦ MIC ≦ 32)” in the experiment on E. faecalis ATCC 29212; “+++ (+++ = MIC ≦ 4)” in the experiment on S. pneumoniae ATCC 49619.
